Results as given in PMC8778681, “Crystal Structure, Solubility, and Pharmacokinetic Study on a Hesperetin Cocrystal with Piperine as Coformer” (Pharmaceutics, 2022).
In brackets after ≈: the same amount, converted by molar mass.

What was measured:
[1] = Bioavailability / pharmacokinetics after oral gavage in rats; format: in vivo; conditions: Sprague-Dawley, 80 mg/kg, HES in rat plasma, equivalent to 80 mg HES/kg
Description: Eighteen Sprague–Dawley rats weighing 220–250 g were randomly divided into three groups (n = 6), fasted for 12 h but freely given water before the experiment. The HES, the physical mixture of HES and PIP, and the HES–PIP cocrystal were delivered by gavage at a dose equivalent to 80 mg of the HES/kg body weight of the animal as a suspension in water. Next, 500 µL blood was withdrawn and placed in a centrifuge tube with heparin from the eye sockets of rats at 0.25 h, 0.5 h, 1 h, 2 h, 4 h, 6 h, 8 h, 12 h, 24 h, and 48 h after oral administration. The plasma was separated by centrifugation (4000 rpm, 15 min) and saved at −80 °C until analysis. Next, 100 µL of plasma sample was added into 400 μL of methanol and vortexed for 5 min to fully precipitate the protein [44], then centrifuged at 10,000 rpm for 10 min. The supernatant was then transferred to another tube and evaporated to remove the solvent under a stream of nitrogen. The residual solid was then dissolved in methanol with vortex oscillation for 3 min, and the mixture was centrifuged at 10,000 rpm for 10 min. Finally, the supernatant was analyzed via HPLC method for HES content. PK parameters were obtained on the basis of a model-independent method using DAS 2 program.

[2] = Solubility experiment in simulated gastrointestinal fluid; format: physicochemical; conditions: thermodynamic from solid, 100 rpm
Description: The solubility of the HES–PIP cocrystal in simulated gastrointestinal fluid was measured in the present study following the method described in the literature but slightly modified. The samples were previously milled and sieved (75–150 μm) before examination to reduce the effect of the crystal’s size on its solubility behavior. A specific amount (containing 25 mg of HES) of the HES–PIP cocrystal was weighed and added into a centrifuge tube containing 5 mL dissolving medium, and the suspension was incubated at 37 ± 0.2 °C rotating at 100 rpm. Taking a tube at 0.25 h, 0.5 h, 1 h, 2 h, 4 h, 6 h, 8 h, 12 h, 24 h, and 48 h, the samples were centrifuged at 12,000 rpm for 5 min, and the supernatant was diluted with methanol and analyzed by HPLC. The cocrystal’s solubility at different times was compared with that of raw HES. […] The residual solid in each tube was also analyzed by PXRD.
The cocrystal’s supersaturation factor (SF) was calculated through the drug supersaturation–time curve following the method presented in a previous study, and the calculation formula is as follows:(1) SF=AUC0.25−48 h(Cocrystal)/AUC0.25−48 h(Hesperetin) where SF is the supersaturation factor, AUC0.25–48 h (Cocrystal) is the area under the curve of the cocrystal supersaturation–time profile, and AUC0.25–48 h (Hesperetin) is the area under the curve for a saturated solution.

AUC(0-t) ([1]; n = 6): 530 ng·h/mL | Tmax ([1]; n = 6): 0.5 h | half-life ([1]; n = 6): 3.01 h | MRT last ([1]; n = 6, read-out: MRT(0–t)): 5.86 h | Cmax ([1]; suspension in water, n = 6): 120 ng/mL | solubility ([2]; fassgf or other biorelevant, simulated gastrointestinal fluid pH 6.8, 37 °C, HES–PIP maximum at 6 h): 21.1 µg/mL (≈ 69.9 µM) | solubility ([2]; simulated gastric fluid, simulated gastrointestinal fluid pH 1.2, 37 °C, HES–PIP maximum at 8 h): 23.1 µg/mL (≈ 76.5 µM)
SMILES: COc1ccc([C@@H]2CC(=O)c3c(O)cc(O)cc3O2)cc1O [HES, ((S)-2,3-dihydro-5,7-dihydroxy-2-(3-hydroxy-4 methoxy-phenyl)-4H-1-benzopyran-4-one)]
